In data set [1] the test system is mouse liver mitochondria (complex I). The experiment in a line: AuPhos-induced OCR in mouse liver mitochondria. The format is biochemical. The note with it: complex I-driven, substrates pyruvate and succinate. An excerpt: (§1) FIGS. 8A-8J present properties of AuPhos. FIG. 8A includes a chemical structure of AuPhos. FIG. 8B includes extrapolated AuPhos-induced OCR (complex I) in liver mitochondria. […] FIG. 8E provides weight change in AuPhos-treated mice over time. FIG. 8F presents stability of AuPhos in PBS and DMEM. FIG. 8G presents stability of AuPhos in PBS and DMEM. FIG. 8H includes an AuPhos-induced Heat map of DEG (left Panel), obtained using log 2(Fold Change) and p-Value <0.00001 thresholds in MDA-MB-231(107) cells (n=2), and the top six hits of KEGG analysis (right panel). FIG. 8I presents biodistribution and pharmacokinetics of AuPhos in different tissues; Colon, Small bowel, Lung, Kidney, Spleen, Liver, Heart and Blood after single dose (oral, 25 mg/kg) administration of AuPhos at 6 h, 12 h and 24 h. FIG. 8J presents biodistribution and pharmacokinetics of AuPhos in different tissues stool after single dose (oral, 25 mg/kg) administration of AuPhos at 6 h, 12 h and 24 h.
(§2) OxPHOS will be then be stimulated by subsequent addition of ADP followed by additional CI substrate glutamate (5 mM). […] Residual non-mitochondrial oxygen consumption will be determined by addition of complex III inhibitor antimycin-A (1 ug/ml). Oxygen consumption rate (OCR) of isolated mitochondria will also be evaluated using Oxygraph-2K or high-throughput Seahorse XFe24 Extracellular Flux Analyzer (Agilent Technologies). […]

Another data set concerns MDA-MB-231 cells. In words: Transcriptomics of global mRNA changes after AuPhos exposure. Type of data set: cell-based. The note with it: 12 h exposure.
Text: as §1
This observation was mitochondrial complex I-driven when different substrates, i.e. pyruvate and succinate, were used to measure the OCR. Transcriptomics was used to study global changes in mRNA in response to a 12 h exposure of AuPhos to MDA-MB-231 cells (FIG. 8H).

Data set [2] in a line: Biodistribution and pharmacokinetics of AuPhos in tissues and stool after single oral dose. Type of data set: in vivo, mouse. To be noted: single oral 25 mg/kg dose.
Text: as §1
FIGS. 16A-16E illustrate the pharmacokinetics and effects of AuPhos on mitochondrial bioenergetics. FIG. 16A. Biodistribution and pharmacokinetics of AuPhos in different tissues; Colon, Small bowel, Spleen, Liver after a single intragastric (i.g.) gavage (25 mg/kg) with measurements of AuPhos tissue levels (graphite furnace atomic absorption spectroscopy) at times indicated. FIG. 16B. […]

Another data set deals with colonic IEC. The experiment in a line: High-resolution respirometry (OCR), mtDNA and mRNA of colonic IEC from AuPhos-fed mice. Type of data set: in vivo, mouse.
Text: FIG. 10B includes high resolution respirometry results showing OCR in mitochondrial complexes of IECs from (A). […] FIG. 10D provides results of RT-qPCR analysis of genes associated with mitochondrial respiratory enzymes in AuPhos vs. control DSS mice. Stats—2-way ANOVA with Sidak's multiple comparison test. ★★<0.01, ★★★<0.0001.
FIGS. 16A-16E illustrate the pharmacokinetics and effects of AuPhos on mitochondrial bioenergetics. FIG. 16A. Biodistribution and pharmacokinetics of AuPhos in different tissues; Colon, Small bowel, Spleen, Liver after a single intragastric (i.g.) gavage (25 mg/kg) with measurements of AuPhos tissue levels (graphite furnace atomic absorption spectroscopy) at times indicated. FIG. 16B. Mitochondrial uptake of AuPhos by measuring gold content in mitochondrial fractions in normal colonocytes (NCM460). FIG. 16C. High-resolution respirometry showing OCR in mitochondrial complexes of freshly isolated IECs from AuPhos (25 mg/kg; q3D×3 doses)-fed mice compared to controls (vehicle only). Stats—2-way ANOVA with Sidak's multiple comparison test. ß<0.05, ßß<0.01. FIG. 16D.
Isolated IECs will be suspended in a mitochondria respiration medium and integrated respiration evaluated using Oxygraph-2K (Oroboros Instruments). Briefly, the capacity of electron transport system (ETS) will be evaluated by direct titration of protonophore, carbonyl cyanide p-(trifluoromethoxy) phenylhydrazone ([…]) after stabilization of routine respiration. After routine endogenous respiratory phase, cells will be permeabilized with digitonin and complex I (CI) substrates malate and pyruvate (5 mM, respectively).
as §2

A further data set relates to colonic NCM460 cells. The experiment in a line: MitoSOX Red assay of mtROS (superoxide) production. Type of data set: cell-based, human. As to the method:
FIG. 11A includes representative images showing AuPhos-induced (200 nM) mtROS (superoxide) production using MitoSOX Red assay.
Given the in vivo data in FIG. 10, it was determined if AuPhos increases ROS levels within mitochondria (mtROS). To examine this possibility, colonic NCM460 cells were cultured, treated with a positive control (Rotenone), AuPhos (200 nM) or AuPhos with PEG-SOD (negative control) and analyzed with MitoSOX Red (an indicator of mitochondrial superoxide). […] Studies in FIGS. 11C and 11D used human colonoids isolated from normal patients to examine effects of AuPhos on hydrogen peroxide (H2O2) production from normal and low-dose TNF-stimulated colonoids.

The test system of the next data set is isolated IEC. In words: Western blot of IEC proteins from control or DSS colitis mice gavaged with AuPhos. Type of data set: in vivo, mouse. As to the method:
Control or DSS colitis mice were gavaged with vehicle (−) or AuPhos (+) (as in FIG. 2) and sacrificed on D14. WB of isolated IEC proteins indicated are shown in nuclear and membranous protein fractions along with densitometry. (#mice=4 for each condition). *p<0.04. FIG. 16E. Normal human colonic biopsies were incubated at 4° C. with AuPhos×3 hrs. Membranous and nuclear fractions examined for indicated proteins by WB.
Taking advantage of the unique electrochemical properties and excellent safety profile of gold in humans, a stable gold compound was designed to modulate mitochondrial processes including oxidative phosphorylation (OXPHOS). […] IEC (FIG. 16C). […] These examples illustrate that AuPhos has utility for “gut selective” IBD therapy.
In general terms: A western blot detects proteins with antibodies after separation by electrophoresis.

“Also recorded” adds a separate entry of the source.

For `[Cl][Au]1([c]2ccccc2Cc2ccccn2)[P](c2ccccc2)(c2ccccc2)c2ccccc2[P]1(c1ccccc1)c1ccccc1` [AuPhos], the “mitochondrial respiration (OCR)” value in data set [1] is “directly and rapidly enhances mitochondrial respiration; also recorded: significant increase in mitochondrial respiration induced by AuPhos in a dose-dependent manner”. Moreover, the “differentially expressed genes (mRNA)” value in the data set with MDA-MB-231 cells is “mitochondrial OXPHOS genes: MT-ND1-5, MT-CYB, MT-CO1-3, and MTATP6 were modulated”. For the same compound, in data set [2], the “evacuation in the stool” value was ≤ 12 h; the tissue biodistribution entry is “clear accumulation in the small and large bowel tissues”. Besides, the “OCR in IEC in vivo” value in the data set with colonic IEC (25 mg/kg q3D x3 doses, freshly isolated colonic IEC, OROBOROS 2K) is listed as “increased OCR in IEC in vivo from states II-V; also recorded: enhances mitochondrial respiration; also recorded: increased OCR (OxPHOS)”. The “mtDNA (mtDNA/nucDNA ratio) in IEC” value in the data set on colonic IEC (IEC from AuPhos-treated mice) is recorded as “increased mtDNA; also recorded: higher mtDNA/nucDNA ratio”. For the same compound, the “mRNA for mitochondrial CO1 and COX2” value in the data set with colonic IEC (IEC from AuPhos-treated mice, RT-qPCR) was “increased”. For the same compound, in the data set with colonic NCM460 cells (AuPhos 200 nM with PEG-SOD (negative control), NCM460), the “AuPhos-induced mtROS production with PEG-SOD” value was “specifically inhibited with PEG-SOD”. In the data set with colonic NCM460 cells (AuPhos 200 nM, NCM460 cells, MitoSOX Red), the “rise in mtROS production” value was 45%. The “Nrf2 and PGC1α levels in IEC” value with isolated IEC (WB) was “increased Nrf2 and PGC1α levels”. The “mitochondrial complex levels in IEC” value with isolated IEC (control and DSS colitis mice, sacrificed D14, WB) is “increases mitochondrial complex levels”.

Values taken from patent US12521415B2, “Accelerating repair of mucosal injury using gold(III) compounds” (University of Kentucky Research Foundation, priority 2020, dated 2026).
